The record followed here is ChEMBL document CHEMBL1151175, “Cytotoxic sesquiterpenoids from Eupatorium chinense” (J Nat Prod, 2004).

In brackets after ≈: the same amount, converted by molar mass.

As usually defined, the IC50 is the concentration that inhibits the measured activity by half. High values mean a need for much substance, low ones inhibition by little substance.

One test concerns Bel-7402. Nature of the test: Cytotoxicity against human Bel7402 cells. The class given is functional, cell-based.
In a further test the test system is HL-60. Briefly: Cytotoxicity against human HL60 cells. The class given is functional, cell-based.

Consider `C=C1C(=O)O[C@H]2[C@H]1[C@H](OC(=O)/C(C)=C\C)CC(CO)=C1C[C@H](O)[C@](C)(O)[C@@H]12` [EUPACHINILIDE A], for which the 50% inhibitory concentration (IC50) in the test on Bel-7402 was 72.2 µg/mL (≈ 191 µM); with HL-60 it was 10.8 µg/mL (≈ 28.5 µM).
Regarding `C=C1C(=O)O[C@H]2[C@H]1[C@H](OC(=O)/C(C)=C/CO)C[C@](O)(CCl)[C@@H]1[C@H](O)[C@H]3O[C@@]3(C)[C@H]21` [EUPACHINILIDE E], the half-inhibitory concentration (IC50) with Bel-7402 came to 18 µg/mL (≈ 42 µM); with HL-60 it was 1.3 µg/mL (≈ 3.03 µM).
In the same order, the values of `C=C1C(=O)O[C@@H]2/C=C(\C)C[C@H](O)/C=C(\C)C[C@@H](OC(=O)/C(C)=C/COC(C)=O)[C@@H]12` [EUPACHINILIDE I] are 3.6 µg/mL (≈ 8.9 µM) and 0.94 µg/mL (≈ 2.32 µM).
In the same order, the values of `C=C1C(=O)O[C@H]2[C@H]1[C@H](OC(=O)/C(C)=C/CO)C[C@](O)(CCl)[C@@H]1[C@H](OC(C)=O)[C@H]3O[C@@]3(C)[C@H]21` [EUPACHNILIDE F] are 3.7 µg/mL (≈ 7.86 µM) and 0.87 µg/mL (≈ 1.85 µM).
In the same order, the values of `CC[C@@]1(O)C(=O)OCc2c1cc1n(c2=O)Cc2cc3cc(O)ccc3nc2-1` [HYDROXYCAMPTOTHECIN] are 0.62 µg/mL (≈ 1.7 µM) and 0.024 µg/mL (≈ 0.0659 µM).
